Data reported in ChEMBL document CHEMBL3588743, “Cell-based and virtual fragment screening for adrenergic α2C receptor agonists” (Bioorg Med Chem, 2015).

Columns and labels:
[1] = molecular target: T1, Alpha-2C adrenergic receptor (Homo sapiens, UniProt P18825); experiment: Agonist activity at recombinant human alpha2c adrenergic receptor expressed in CHOK1 cells co-expressing Gqi5 assessed as induction of cytoplasmic calcium mobilization measured for 40 secs by fluorometric analysis; type: functional, cell-based, CHO-K1
T1 sequence (P18825 whole entry): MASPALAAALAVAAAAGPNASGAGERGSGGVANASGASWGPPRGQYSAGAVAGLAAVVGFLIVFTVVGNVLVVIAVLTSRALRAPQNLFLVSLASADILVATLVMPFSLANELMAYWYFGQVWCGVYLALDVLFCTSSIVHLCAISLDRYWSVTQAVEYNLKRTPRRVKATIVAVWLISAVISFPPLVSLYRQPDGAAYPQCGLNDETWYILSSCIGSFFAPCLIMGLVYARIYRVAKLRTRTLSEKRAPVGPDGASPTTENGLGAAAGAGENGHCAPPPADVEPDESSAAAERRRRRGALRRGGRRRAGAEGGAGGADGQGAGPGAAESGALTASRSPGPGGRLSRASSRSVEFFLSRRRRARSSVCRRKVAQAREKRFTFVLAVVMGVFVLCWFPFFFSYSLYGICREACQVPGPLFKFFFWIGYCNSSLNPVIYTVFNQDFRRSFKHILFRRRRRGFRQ

[2] = molecular target: T1, Alpha-2C adrenergic receptor; experiment: (§1) Displacement of [3H]-UK14304 from recombinant human alpha2c adrenergic receptor expressed in CHOK1 cell membranes after 30 mins by scintillation counting analysis; parameters: species or system CHO-K1
[3] = molecular target: T2, Alpha-2C adrenergic receptor (Homo sapiens) (UniProt P18825); experiment: as §1; settings: CHO-K1
T2 sequence (whole entry): T1 sequence (P18825 whole entry)

[4] = molecular target: T2, Alpha-2C adrenergic receptor (Homo sapiens); experiment: Agonist activity at recombinant human alpha2c adrenergic receptor expressed in CHOK1 cells co-expressing Gqi5 assessed as induction of cytoplasmic calcium mobilization measured for 40 secs by fluorometric analysis relative to UK14304; type: functional, cell-based; settings: CHO-K1
[5] = molecular target: Somatostatin receptor type 4 (Homo sapiens) (UniProt P31391); experiment: Agonist activity at recombinant human sst4 receptor expressed in CHOK1 cells co-expressing Galpha16 assessed as induction of cytoplasmic calcium mobilization at 250 uM measured for 40 secs by fluorometric analysis relative to L-803087; type: functional, cell-based; settings: CHO-K1
Somatostatin receptor type 4 (Homo sapiens), sequence (P31391 whole entry): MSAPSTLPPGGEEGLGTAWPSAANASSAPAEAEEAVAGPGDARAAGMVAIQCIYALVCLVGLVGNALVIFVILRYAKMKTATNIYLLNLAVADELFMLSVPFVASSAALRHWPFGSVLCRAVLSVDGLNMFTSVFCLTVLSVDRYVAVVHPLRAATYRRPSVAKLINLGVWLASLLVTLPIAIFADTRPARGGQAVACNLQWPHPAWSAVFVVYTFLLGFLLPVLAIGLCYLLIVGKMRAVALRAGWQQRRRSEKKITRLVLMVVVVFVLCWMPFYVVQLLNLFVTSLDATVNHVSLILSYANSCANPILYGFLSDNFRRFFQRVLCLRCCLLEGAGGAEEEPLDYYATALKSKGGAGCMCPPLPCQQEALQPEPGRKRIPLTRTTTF

| EC50 [1] | Ki [2] | Emax [3] | Emax [4] | Compound | Activity [5] |
| --- | --- | --- | --- | --- | --- |
| 3.47 µM | 1.07 µM | 98% | 56% | c1cncc(-c2ccccc2NCc2ccncc2)c1 | – |
| 631 µM | 15.5 µM | 81% | 93% | NCC(=O)Nc1ccccc1Oc1ccccc1 | – |
| 0.055 µM | 0.00229 µM | 102% | 55% | c1ccc2c(CC3=NCCN3)cccc2c1 [NAPHAZOLINE] | – |
| > 501 µM | 1.17 µM | 97% | > 105% | Brc1cccc(Cn2ccnc2)c1 | – |
| 479 µM | 5.25 µM | 102% | 87% | c1ccc(-c2nc(CNCc3cccnc3)c[nH]2)cc1 | – |
| 0.174 µM | 0.0724 µM | 100% | 60% | Cc1ccccc1NCc1cnc[nH]1 | – |
| > 501 µM | 0.537 µM | 92% | > 66% | Cc1ccccc1NCc1ccncc1 | – |
| 1.38 µM | 0.0832 µM | 92% | 70% | Oc1cc2c(cc1O)C(c1ccccc1)CNCC2 (configuration not stated) [SKF-38393] | – |
| > 501 µM | 8.32 µM | 104% | > 51% | NCCCN(C(=O)c1ccccc1)c1ccccc1 | – |
| > 501 µM | 7.24 µM | 99% | > 88% | CCNCC(=O)N1CCn2cccc2C1c1cccc(Cl)c1 (configuration not stated) | – |
| 148 µM | 22.4 µM | 102% | 55% | Cc1ccccc1Cn1ccnc1CNC(C)C | – |

The remaining lines, values behind:

| Compound | EC50 [1] | Ki [2] | Emax [3] | Emax [4] | Activity [5] |
| --- | --- | --- | --- | --- | --- |
| N#Cc1cccc(-c2ccccc2CCN)c1 | > 501 µM | 0.0117 µM | 100% | > 75% | – |
| CN1CCN(c2ccc(N)cc2)CC1 | > 501 µM | 1.51 µM | 100% | > 36% | < 10% |
| NCCSc1nc2ccccc2o1 | 3.16 µM | 0.646 µM | 92% | 49% | – |
| CN1CCN(c2ccccc2N)CC1 | – | 0.24 µM | – | – | – |
| O=C(CCC1CCCC1)N1CCSC12CCNCC2 | > 501 µM | 15.5 µM | 81% | > 82% | – |
| COc1ccccc1OCC1CNCCO1 (configuration not stated) | > 501 µM | 10.5 µM | 81% | > 77% | – |
| CN1CCN(c2cccc(N)c2)CC1 | – | 0.562 µM | – | – | – |
| OC(Cn1ccnc1)c1ccc(Cl)cc1Cl (configuration not stated) | 339 µM | 15.1 µM | 78% | 123% | – |
| COc1ccc(C2NCCCn3cccc32)cc1 (configuration not stated) | – | 13.8 µM | – | – | – |
